Experimental data taken from patent US4298594A, “Xenobiotic delivery vehicles, method of forming them and method of using them” (Arthur D. Little, Inc., priority 1980, dated 1981).
“Also recorded” adds a separate entry of the source.

Columns and labels:
[1] = in vitro stability of microreservoirs and liposomes (optical density ratio A400/A600, thin layer chromatograms); type: physicochemical; conditions: after sonication and centrifugation
Protocol: Both of the suspensions were then spun at 100,000 g for one hour to remove any undispersed lipid.
Aliquots of 4 ml of each sample were then placed into stoppered curvettes and the samples were incubated at 37° C. At various points in time optical densities of the two solutions at 400 nm and 600 nm were determined. […] Since both structures initially had essentially the same molecular size, the ratio of A400/A600 is an indication of any increase in the particle size due to the breakdown of the structural organization of the liposome.

[2] = within two minutes after administration; cited from earlier work
[3] = in vivo; cited from earlier work
[4] = system: P388 tumor cells; conditions: 4 mg/kg ip daily for 5 days
Protocol: A number of mice were injected intraperitoneally with 1×10^6 P388 tumor cells. […] One group of mice, used as a control, received no drug in any form. Five mice were used for each protocol and two different dosage levels, 4 mg/kg and 2 mg/kg, were used.

[5] = plasma kinetics of daunomycin in rats, intravenous
Protocol: A control sample of free daunomycin at the same concentration and in the same buffer was also prepared.
0.5 ml of blood was taken at various time points from each rat. The plasma was separated from the blood samples and assayed for daunomycin fusing fluorescence. The data thus obtained are plotted in FIG. 10 as a function of time after injection.

[6] = affinity for and efflux of estradiol undecanoate from vesicular and nonvesicular microreservoirs; type: physicochemical
Protocol: The resulting liquid was sonicated at 40° C. for 20 minutes under a nitrogen atmosphere and passed down a Sepharose 4B Column. […] The material in the void volume of the column consisted of the nonvesicular form, whereas the material in the internal volume consisted of the vesicular form.

[7] = cited from earlier work
[8] = system: L1210 leukemic cells; experiment: chemotherapy of L1210 leukemic mice with adriamycin, survival; conditions: 4 mg/kg ip, days 1 through 5; day 24; listed as free adriamycin
Protocol: 72 normal mice were each innoculated with 10^6 L1210 leukemic cells by intraperitoneal injection on day zero. […] The drug in all cases was also given by intraperitoneal injection and the dosages were repeated daily on days 1 through 5. The dosage levels chosen were 4 mg/kg, 2 mg/kg, 1 mg/kg and 0.5 mg/kg.

[9] = system: normal mice; experiment: toxicity of adriamycin in normal mice, survival; type: in vivo; conditions: 4 mg/kg ip daily for five days, six mice; listed as free adriamycin
Protocol: Two dosages levels of the drug were chosen--4 mg/kg and 2 mg/kg. In each case, six normal mice received the injections each day for five days and then they were observed thereafter to determine the number of survivors. The results are plotted in FIG. 16.

[10] = binding of adriamycin to microreservoirs; type: physicochemical
Protocol: With this 2 mg (3.45 μmoles) of adriamycin was used. In the five samples, the amount of phosphatidic acid in the total lipid constituent was varied from zero to 25%. […] The aqueous suspensions were each sonicated at 52° C. for 15 minutes. Each sample was passed down through a 2.5×50 cm Sephadex G-50 gel column to separate free and bound adriamycin.
2875 μmoles of purified soybean phosphatidyl chloine (specific activity 2296 ^3 H dpm/μmole) 720 μmoles of soybean phosphatidic acid and 720 μmoles of cholesteryl oleate (specific activity of 3638 ^14 C dpm/μmole) were dissolved in choloroform and taken to dryness by pumping overnight against a vacuum. The resulting solid material was hydrated with 20 ml of 10 mM of trihydroxymethylamine (pH 9.1) and the liquid was sonicated at 52° C. under a nitrogen atmosphere for 15 minutes. The pH of the solution was lowered to 7.2 and then it was centrifuged for one hour at 100,000 g. 34.9 mg of adriamycin was added to the clear supernatant and it was then allowed to incubate for 30 minutes at room temperature. After this incubation, the ionic strength of the solution was increased to 0.154 M NaCl; and it was passed down a 4.3×37 cm G-50 Sephadex G-50 gel column using 0.154 M NaCl and 10 mM trihydroxymethylamine as the eluting solvent.

[11] = tissue distribution of free imidocarb and microreservoir-borne imidocarb; type: in vivo, rats; conditions: 4 hours after injection
Text: Various tissues, such as muscle, spleen, liver and kidney, were taken from the animals. These tissues were combusted in a Searle combustion apparatus and the resulting ^14 CO2 was collected and counted for radioactivity.

[12] = plasma kinetics of imidocarb in rats, tail vein injection; type: in vivo; conditions: 24 hours (FIG. 24)
Protocol: Plasma samples were taken at various time points and the amount of imidocarb in these samples was determined by measurements of their radio-activity.

[13] = system: P388 leukemia system; conditions: mouse; cited from earlier work
[14] = system: L1210 leukemia system; conditions: mouse; cited from earlier work

With `COc1cccc2c1C(=O)c1c(O)c3c(c(O)c1C2=O)C[C@@](O)(C(C)=O)C[C@@H]3O[C@H]1C[C@H](N)[C@H](O)[C@H](C)O1` [daunomycin] as the molecule, how does the “degradation by thin layer chromatograms of the centrifugates” value [1] read?
Its value is “no evidence of degradation”.

And the “fraction left to reach the target tissue” value [2]?
Its value is ~5%.

What about the “fraction that has left the bloodstream within two minutes” value [2] of the same molecule?
The value was “about 95%”.

And the toxicity [3]?
The toxicity was “known to be toxic, particularly since it tends to concentrate in the heart tissues”.

And the “chemotherapeutic effect / toxicity (survivors)” value [4]?
The value was “demonstrated a toxicity measurably greater than the tumor cells”.

What about the “presence in the bloodstream after 3 3/4 hours” value ([5]; printed "33/4 hours", 4 mg/kg iv) of the same molecule?
The value was “virtually absent from the bloodstream”.

And the concentration at 0.25 h ([5]; rat, in vivo, iv, 4 mg/kg)?
Its concentration at 0.25 h is ~400 ng/mL.

What about the concentration at 1 h ([5]; rat, in vivo, iv, 10 mg/kg) of the same molecule?
The concentration at 1 h was ~500 ng/mL.

What about the concentration at 3 h ([5]; rat, in vivo, iv, 10 mg/kg) of the same molecule?
Its concentration at 3 h is ~300 ng/mL.

And the concentration at 6 h ([5]; rat, in vivo, iv, 10 mg/kg)?
Its concentration at 6 h is ~140 ng/mL.

With `CCCCCCCCCCC(=O)O[C@H]1CC[C@H]2[C@@H]3CCc4cc(O)ccc4[C@H]3CC[C@]12C` [estradiol undecanoate] as the molecule, how does the “efflux / retention of estradiol undecanoate” value ([6]; incubated with unsonicated egg phosphatidyl choline dispersion) read?
The value was “remained associated with both forms of the microreservoirs”.

What about the “affinity for vesicular vs nonvesicular microreservoirs” value ([6]; ratio of estradiol undecanoate to cholesteryl oleate) of the same molecule?
Its value is “higher affinity for the vesicular form of the microreservoirs than for the nonvesicular form”.

And the “solubility in aqueous buffer / water” value [7]?
The value was “essentially insoluble in water”.

For `COc1cccc2c1C(=O)c1c(O)c3c(c(O)c1C2=O)C[C@@](O)(C(=O)CO)C[C@@H]3O[C@H]1C[C@H](N)[C@H](O)[C@H](C)O1` [adriamycin], which “therapeutic effect / survivors” value [8] is on record?
Its value is “some therapeutic effect for a short period of time; also recorded: all of the control mice and those receiving the free adriamycin had succumbed to leukemia and/or the toxic effect of the drug”.

And the “toxicity (survival at 30 days)” value [9]?
Its value is “highly toxic; also recorded: survival of only one mouse”.

And the “binding of adriamycin to the microreservoirs relative to daunomycin” value [10]?
The value was “does not bind as strongly to the microreservoirs as does, for example, daunomycin”.

And the “bound adriamycin vs amount of phosphatidic acid” value ([10]; 80 μmoles total phospholipid, 20 μmoles cholesteryl oleate, 2 mg adriamycin, pH 7.2)?
Its value is “increases with increasing amounts of phosphatidic acid”.

And the “phosphatidic acid content up to which bound adriamycin increases before levelling off” value ([10]; relative to total lipids)?
The value was “about 25 mole %”.

And the “solubility in aqueous buffer / water” value [7]?
Its value is “water soluble”.

For `O=C(Nc1cccc(C2=NCCN2)c1)Nc1cccc(C2=NCCN2)c1` [imidocarb], which “tissue distribution, Kidney” value ([11]; kidney) is on record?
The value was 40,194 dpm/gram of tissue.

And the “tissue distribution, Liver” value ([11]; liver)?
The value was 27,059 dpm/gram of tissue.

And the “tissue distribution, Muscle” value ([11]; muscle)?
Its value is 3,985 dpm/gram of tissue.

And the “tissue distribution, Spleen” value ([11]; spleen)?
Its value is 9,498 dpm/gram of tissue.

And the “imidocarb in the bloodstream after 24 hours” value [12]?
The value was “virtually none”.

Which results are given for `CCCCC(=O)OCC(=O)C1(O)Cc2c(O)c3c(c(O)c2C(OC2CC(NC(=O)C(F)(F)F)C(O)C(C)O2)C1)C(=O)c1c(OC)cccc1C3=O` (stereo not drawn) [AD 32, N-Trifluoroacetyladriamycin-14-Valerate]?
antitumor activity [13]: significantly greater antitumor activity than adriamycin or daunomycin; antitumor activity [14]: significantly greater antitumor activity than adriamycin or daunomycin; solubility in aqueous buffer / water [7]: totally insoluble in an aqueous buffer
